Reference: ChEMBL document CHEMBL1932956, “Combination of two chromophores: synthesis and PDT application of porphyrin-pentamethinium conjugate” (Bioorg Med Chem Lett, 2012)
The source made the active and inactive calls. The calls are words filed in the database; no cut-off is given here.

Experiments:
HL-60 [1] = assay: Induction of apoptosis in human HL60 cells assessed as cell death measured after 24 hrs following photo irradiation by trypan blue assay; assay type: functional, cell-based
HL-60 [2] = assay: Induction of apoptosis in human HL60 cells assessed as DNA fragmentation measured after 6 hrs following photo irradiation by trypan blue assay; assay type: functional, cell-based
HL-60 [3] = assay: Cytotoxicity against human HL60 cells assessed as cell viability; assay type: functional, cell-based
UB900518 = assay: Antitumor activity against human UB900518 cells xenografted in mouse assessed as tumor regression at 5 mg/kg followed by photo irradiation measured after 72 hrs; assay type: functional, organism-based; parameters: dose 5 mg/kg

Row | Compound | Activity (HL-60 [1]) | Activity (HL-60 [2]) | IC50 (HL-60 [3]) | Activity (UB900518)
1 | CN(C)/C=C/C(=C\C=[N+](C)C)c1c2nc(c(C(/C=C/N(C)C)=C/C=[N+](C)C)c3ccc([nH]3)c(C(/C=C/N(C)C)=C/C=[N+](C)C)c3nc(c(C(/C=C/N(C)C)=C/C=[N+](C)C)c4ccc1[nH]4)C=C3)C=C2 | Active | Active | 3 µM | Active
2 | O=[N+]([O-])c1ccc(-[n+]2ccc(-c3c4nc(c(-c5cc[n+](-c6ccc([N+](=O)[O-])cc6[N+](=O)[O-])cc5)c5ccc([nH]5)c(-c5cc[n+](-c6ccc([N+](=O)[O-])cc6[N+](=O)[O-])cc5)c5nc(c(-c6cc[n+](-c7ccc([N+](=O)[O-])cc7[N+](=O)[O-])cc6)c6ccc3[nH]6)C=C5)C=C4)cc2)c([N+](=O)[O-])c1 | Active | Active | 3.4 µM | 
